{"source": "patent US20030013638A1", "about": "“P27 prevents cellular migration” (priority 2001, published 2003)", "key": {"wild type murine SMC": {"tested_on": "wild type murine SMC", "test": "SMC migration assay, modified Boyden chamber, bFGF-induced", "type": "cell-based, mouse", "experimental": "(§1) Cell Culture: The murine aortic SMCs were obtained from the explant migration experiments described below, and were subcultured in DMEM containing 20% fetal bovine serum (FBS) at 37° C. in a humidified 95% air-5% CO2 atmosphere (Kobayashi et al., 1993). The growth medium was changed every other day until 80% confluence was reached. The cells used for experiments were from passages #3-6. Verification of SMC phenotype was determined by positive fluorescent staining for α-actin and negative staining for Factor VIII antigen. Cell viability was 95% or greater as determined by trypan blue exclusion at the conclusion of each experiment.\nSMC migration assay: Migration was measured using a 48 well modified Boyden chamber housing a polycarbonate filter with 8 μm pores as described previously (Bornfeldt et al., 1994; Poon et al., 1996). Each membrane was coated with 0.1 mg/ml of collagen in 0.2 M acetic acid for 24 hours before each assay. For each assay, 50 ng/ml of bFGF in DMEM was loaded in quadruplicate wells in the bottom chamber. BSA (0.2% in DMEM without bFGF) was used as a negative control. […] An equal number of cells (2×10^5/ml) in 50 μl was loaded to the top chamber of each well. After 6 hours, non-migrating cells were scraped from the upper surface of the filter. Cells on the lower surface were fixed with methanol and stained with Giemsa stain (Fisher Scientific, N.Y.) . The number of SMC on the lower surface of the filter was determined by counting four high power (X200) fields of constant area per well. Values are expressed as the percentage of cells migrating in response to bFGF after subtraction of the negative control (DMEM+BSA). Experiments were performed at least twice using quadruplicate wells."}, "p27 (−/−) SMC": {"tested_on": "p27 (−/−) SMC", "test": "SMC migration assay, modified Boyden chamber, bFGF-induced", "type": "cell-based, mouse", "experimental": "as §1\nSMC migration assay: Migration was measured using a 48 well modified Boyden chamber housing a polycarbonate filter with 8 μm pores as described previously (Bornfeldt et al., 1994; Poon et al., 1996). Each membrane was coated with 0.1 mg/ml of collagen in 0.2 M acetic acid for 24 hours before each assay. For each assay, 50 ng/ml of bFGF in DMEM was loaded in quadruplicate wells in the bottom chamber. BSA (0.2% in DMEM without bFGF) was used as a negative control. Rapamycin, FK506 or C3 exoenzyme was directly added to the growth medium for either 48 hours (rapamycin and FK506) or 16 hours (C3 exoenzyme) before the cells were trypsinized, and counted with a hemacytometer. An equal number of cells (2×10^5/ml) in 50 μl was loaded to the top chamber of each well. After 6 hours, non-migrating cells were scraped from the upper surface of the filter. Cells on the lower surface were fixed with methanol and stained with Giemsa stain (Fisher Scientific, N.Y.) . The number of SMC on the lower surface of the filter was determined by counting four high power (X200) fields of constant area per well. Values are expressed as the percentage of cells migrating in response to bFGF after subtraction of the negative control (DMEM+BSA). Experiments were performed at least twice using quadruplicate wells."}, "[1]": {"tested_on": "aortic SMC of p27 (+/−) mice", "test": "Aortic SMC explant migration after in vivo treatment", "parameters": "species or system mouse", "details": "4 mg/kg/day for 5 days IP, p<0.05", "experimental": "Aortic SMC explant migration: Wild type C57BL/6 mice were purchased from Jackson Laboratory (Bar Harbor, Me.). The p27 (+/−) and p27 (−/−) knockout mice were kindly provided by Dr. Andrew Koff of Memorial Sloan-Kettering Cancer Institute (Kiyokawa et al., 1996). The mice received one of three different treatment protocols (9 mg/kg/day for 7 days, 4 mg/kg/day for 5 days, or 2 mg/kg/day for 2 days) of rapamycin via intraperitoneal (IP) injection. The control group was treated with vehicle alone (0.2% sodium CMC, polysorbate 0.25%; Sigma, St. Louis, Mo.). At the conclusion of the treatment protocol, the mice were euthanized with 100 mg/kg of pentobarbital, the aortas excised and the adventitia and surrounding connective tissue were removed. The aortas were then opened by a longitudinal cut and the intima, as well as a thin portion of the subjacent media, were removed. The media were divided into 2 mm×2 mm pieces and placed in 6 well tissue culture plates (35 mm, 22.6 mm diameter, Costar, Cambridge, Mass.) containing DMEM with 20% FBS. The culture media was changed every other day. The migration of SMC out of the explant was observed under the microscope daily following explant. The total number of cells explanted was determined for each animal's explants on a daily basis. […]"}, "[2]": {"tested_on": "aortic SMC of wild type C57BL/6 mice", "test": "Aortic SMC explant migration after in vivo treatment", "parameters": "species or system mouse", "experimental": "(§2) Aortic SMC explant migration: Wild type C57BL/6 mice were purchased from Jackson Laboratory (Bar Harbor, Me.). The p27 (+/−) and p27 (−/−) knockout mice were kindly provided by Dr. Andrew Koff of Memorial Sloan-Kettering Cancer Institute (Kiyokawa et al., 1996). […] The control group was treated with vehicle alone (0.2% sodium CMC, polysorbate 0.25%; Sigma, St. Louis, Mo.). At the conclusion of the treatment protocol, the mice were euthanized with 100 mg/kg of pentobarbital, the aortas excised and the adventitia and surrounding connective tissue were removed. The aortas were then opened by a longitudinal cut and the intima, as well as a thin portion of the subjacent media, were removed. The media were divided into 2 mm×2 mm pieces and placed in 6 well tissue culture plates (35 mm, 22.6 mm diameter, Costar, Cambridge, Mass.) containing DMEM with 20% FBS. The culture media was changed every other day. The migration of SMC out of the explant was observed under the microscope daily following explant. The total number of cells explanted was determined for each animal's explants on a daily basis. The results in FIG. 5 are presented as the mean percentage (±SD) of inhibition of migration (by rapamycin or taxol) as compared to control (untreated) for at least 4 animals from each group. The SMC phenotype was confirmed as previously described (Spector et al., 1997)."}, "[3]": {"tested_on": "SMC obtained from wild type and p27 (−/−) animals", "test": "Cell viability (trypan blue exclusion) and morphology of SMC", "type": "cell-based, mouse", "experimental": "as §1"}, "[4]": {"tested_on": "aortic SMC of p27 (−/−) knockout mice", "test": "Aortic SMC explant migration after in vivo treatment", "parameters": "species or system mouse", "details": "20 mg/kg/day for 7 days", "experimental": "as §2"}}}
{"molecule": "C=CC[C@@H]1/C=C(\\C)C[C@H](C)C[C@H](OC)[C@H]2O[C@@](O)(C(=O)C(=O)N3CCCC[C@H]3C(=O)O[C@H](/C(C)=C/[C@@H]3CC[C@@H](O)[C@H](OC)C3)[C@H](C)[C@@H](O)CC1=O)[C@H](C)C[C@@H]2OC", "note": "[FK506]", "values": [{"measurement": "effect on murine SMC migration (FIG. 1A)", "setting": "wild type murine SMC; wild type SMC, 48 hours", "result": "no effect"}, {"measurement": "effect on murine SMC migration (FIG. 1B)", "setting": "p27 (−/−) SMC; p27 (−/−) SMC, 48 hours", "result": "no effect"}]}
{"molecule": "CO[C@H]1C[C@@H]2CC[C@@H](C)[C@@](O)(O2)C(=O)C(=O)N2CCCC[C@H]2C(=O)O[C@H]([C@H](C)C[C@@H]2CC[C@@H](O)[C@H](OC)C2)CC(=O)[C@H](C)/C=C(\\C)[C@@H](O)[C@@H](OC)C(=O)[C@H](C)C[C@H](C)/C=C/C=C/C=C/1C", "note": "[rapamycin]", "values": [{"measurement": "inhibition of explant migration as compared to untreated animals", "setting": "[1]", "result": "~85", "unit": "%"}, {"measurement": "IC50", "setting": "wild type murine SMC; Mus musculus, wild type murine SMC, treatment for 48 hours, read-out: IC50, inhibition of bFGF-induced SMC migration", "result": "~2", "unit": "nM"}, {"measurement": "effect on SMC migration of addition immediately prior to incubation", "setting": "wild type murine SMC; added to upper or lower chamber immediately prior to incubation, genotype not stated", "result": "no effect"}, {"measurement": "inhibition of explant migration as compared to untreated animals", "setting": "[2]; wild type, 4 mg/kg/day for 5 days IP, p<0.05", "result": "~85", "unit": "%"}, {"measurement": "inhibition at 0.1 µM", "setting": "p27 (−/−) SMC; Mus musculus, p27 (−/−) SMC, 100 nM, 48 hours", "result": "~35", "unit": "%"}, {"measurement": "IC50", "setting": "p27 (−/−) SMC; Mus musculus, p27 (−/−) cells, treatment for 48 hours, read-out: IC50, inhibition of bFGF-induced SMC migration", "result": "~200", "unit": "nM"}, {"measurement": "inhibition of migration", "setting": "p27 (−/−) SMC; p27 (−/−) SMC, 1 nM to 10 nM, 48 hours", "result": "no significant inhibition"}, {"measurement": "increased IC50 in p27 (−/−) cells as compared to wild type SMC", "setting": "p27 (−/−) SMC; p27 (−/−) vs wild type SMC", "result": 100, "unit": "fold"}, {"measurement": "cell viability, treated vs untreated", "setting": "[3]", "result": "no differences"}]}
{"molecule": "CC(=O)O[C@H]1C(=O)[C@@]2(C)[C@H]([C@H](OC(=O)c3ccccc3)[C@]3(O)C[C@H](OC(=O)[C@H](O)[C@@H](NC(=O)c4ccccc4)c4ccccc4)C(C)=C1C3(C)C)[C@]1(OC(C)=O)CO[C@@H]1C[C@@H]2O", "note": "[taxol, paclitaxel]", "values": [{"measurement": "inhibition of explant migration (FIG. 3C)", "setting": "[2]; p27 (+/+), 20 mg/kg/day for 7 days", "result": "inhibited migration"}, {"measurement": "difference in inhibition of explant migration between wild type and p27 (−/−) animals", "setting": "[4]", "result": "No differences"}, {"measurement": "inhibition of explant migration (FIG. 3C)", "setting": "[4]; p27 (−/−)", "result": "inhibited migration"}]}
